In ChEMBL document CHEMBL3870331, “Design, development of new synthetic methodology, and biological evaluation of substituted quinolines as new anti-tubercular leads” (Bioorg Med Chem Lett, 2016):

Legend:
[1] = tested on: Mycobacterium tuberculosis; assay: Antimycobacterial activity against Mycobacterium tuberculosis H37Rv ATCC 27294 measured after 28 days by MABA method; type: functional; conditions: H37Rv ATCC 27294, 672 h
[2] = Cytotoxicity against HEK293T cells assessed as inhibition of cell viability at 50 ug/ml after 72 hrs by MTT assay relative to control; type: toxicity, cell-based, HEK-293T; conditions: human, read-out: INH
[3] = Therapeutic index, ratio of compound cytotoxic activity for HEK293T cells to MIC99 for Mycobacterium tuberculosis H37Rv ATCC 27294; type: cell-based, HEK-293T; conditions: human, read-out: TI

For COc1ccc(NC(=O)c2c(C)nc3ccccc3c2-c2ccccc2)cc1, the MIC99 [1] was 8.48 µM and the cytotoxicity at 72 h, 50 ug/ml [2] was 35.2%.
O=C1CCCc2nc3ccccc3c(-c3ccccc3)c21 gave an MIC99 [1] of 45.7 µM.
For c1ccc(-c2cc(-c3cccs3)nc3ccccc23)cc1, the MIC99 [1] was 21.8 µM and the cytotoxicity at 72 h, 50 ug/ml [2] was 25.5%.
Work on Cc1nc2ccccc2c(-c2ccccc2)c1C(=O)NCc1cccc(F)c1 yielded an MIC99 [1] of 33.8 µM.
c1ccc(-c2c3c(nc4ccccc24)CCC3)cc1 gave an MIC99 [1] of 25.5 µM and a cytotoxicity at 72 h, 50 ug/ml [2] of 30%.
In the case of Cc1nc2ccccc2c(-c2ccccc2)c1C(=O)Nc1ccccc1F, the MIC99 [1] is reported as 35.1 µM.
For c1ccc(-c2c3c(nc4ccccc24)CCCC3)cc1, the MIC99 [1] was 48.2 µM.
For Cc1nc2ccccc2c(-c2ccccc2)c1C(=O)Nc1ccc(Br)cc1, the MIC99 [1] was 30.9 µM.
In the case of Cc1nc2ccccc2c(-c2ccccc2)c1C(=O)Nc1ccccc1Br, the MIC99 [1] is reported as 15 µM and the cytotoxicity at 72 h, 50 ug/ml [2] is reported as 15.6%.
Compound CC1CC(=O)c2c(nc3ccccc3c2-c2ccccc2)C1 (stereo unspecified) has an MIC99 [1] of 21.8 µM and a cytotoxicity at 72 h, 50 ug/ml [2] of 28%.
In the case of O=C1CC(c2ccccc2)Cc2nc3ccccc3c(-c3ccccc3)c21 (stereo unspecified), the MIC99 [1] is reported as 35.8 µM.
In the case of Cc1nc2ccccc2c(-c2ccccc2)c1C(=O)Nc1ccc(F)cc1, the MIC99 [1] is reported as 16.8 µM and the cytotoxicity at 72 h, 50 ug/ml [2] is reported as 12.5%.
NC(=O)c1cnccn1 [PYRAZINAMIDE] showed an MIC99 [1] of 6.25 µg/mL.
Compound CC(=O)c1c(C)nc2ccc(Cl)cc2c1-c1ccccc1 has an MIC99 [1] of 10.6 µM and a cytotoxicity at 72 h, 50 ug/ml [2] of 19.9%.
For CO[C@H]1/C=C/O[C@@]2(C)Oc3c(C)c(O)c4c(O)c(c(/C=N/N5CCN(C)CC5)c(O)c4c3C2=O)NC(=O)/C(C)=C\C=C\[C@H](C)[C@H](O)[C@@H](C)[C@@H](O)[C@@H](C)[C@H](OC(C)=O)[C@@H]1C [RIFAMPIN], the MIC99 [1] was 0.197 µg/mL.
Cc1nc2ccccc2c(-c2ccccc2)c1C(=O)NCc1ccc(C(C)(C)C)cc1 showed an MIC99 [1] of 3.82 µM and a cytotoxicity at 72 h, 50 ug/ml [2] of 35.6%.
For Cc1nc2ccccc2c(-c2ccccc2)c1C(=O)Nc1ccccc1OC(F)(F)F, the MIC99 [1] was 29.6 µM.
Compound COC(=O)c1c(C)nc2ccc(Cl)cc2c1-c1ccccc1 has an MIC99 [1] of 80.2 µM.
Cc1nc2ccccc2c(-c2ccccc2)c1C(=O)c1ccccc1 gave an MIC99 [1] of 19.3 µM and a cytotoxicity at 72 h, 50 ug/ml [2] of 22.1%.
Compound Cc1nc2ccccc2c(-c2ccccc2)c1C(=O)OC(C)(C)C has an MIC99 [1] of 1.22 µM and a cytotoxicity at 72 h, 50 ug/ml [2] of 13.6%.
Cc1ccccc1CNC(=O)c1c(C)nc2ccccc2c1-c1ccccc1 showed an MIC99 [1] of 8.53 µM and a cytotoxicity at 72 h, 50 ug/ml [2] of 20.6%.
Work on c1ccc(-c2cc(-c3ccco3)nc3ccccc23)cc1 yielded an MIC99 [1] of 5.75 µM and a cytotoxicity at 72 h, 50 ug/ml [2] of 34%.
COC(=O)c1c(C)nc2ccccc2c1-c1ccccc1 showed an MIC99 [1] of 45.1 µM and a cytotoxicity at 72 h, 50 ug/ml [2] of 25.6%.
Cc1nc2ccccc2c(-c2ccccc2)c1C(=O)Nc1ccccc1I showed an MIC99 [1] of 3.36 µM and a cytotoxicity at 72 h, 50 ug/ml [2] of 17.9%.
For COc1ccccc1NC(=O)c1c(C)nc2ccccc2c1-c1ccccc1, the MIC99 [1] was 67.9 µM.
Compound Cc1nc2ccc(Cl)cc2c(-c2ccccc2)c1C(=O)c1ccccc1 has an MIC99 [1] of 8.73 µM and a cytotoxicity at 72 h, 50 ug/ml [2] of 26.1%.
Cc1nc2ccccc2c(-c2ccccc2)c1C(=O)Nc1ccc(Cl)cc1 gave an MIC99 [1] of 17.5 µM and a cytotoxicity at 72 h, 50 ug/ml [2] of 16.3%.
Work on Cc1nc2ccccc2c(-c2ccccc2)c1C(=O)Nc1cccnc1Cl yielded an MIC99 [1] of 16.7 µM and a cytotoxicity at 72 h, 50 ug/ml [2] of 11.3%.
Compound CC(=O)c1c(C)nc2ccccc2c1-c1ccccc1 has an MIC99 [1] of 47.8 µM.
CC[C@@H](CO)NCCN[C@@H](CC)CO [ETHAMBUTOL] gave an MIC99 [1] of 1.56 µg/mL.
Compound Cc1nc2ccccc2c(-c2ccccc2)c1C(=O)NCc1ccccc1 has an MIC99 [1] of 70.9 µM.
In the case of c1ccc(-c2c3c(nc4ccccc24)CCCCC3)cc1, the MIC99 [1] is reported as 45.7 µM.
CC1(C)CC(=O)c2c(nc3ccccc3c2-c2ccccc2)C1 showed an MIC99 [1] of 20.7 µM and a cytotoxicity at 72 h, 50 ug/ml [2] of 22%.
Compound Cc1nc2ccccc2c(-c2ccccc2)c1C(=O)Nc1ccccc1Cl has an MIC99 [1] of 33.5 µM.
For CCOC(=O)c1c(C)nc2ccc(Cl)cc2c1-c1ccccc1, the MIC99 [1] was 76.7 µM.
For Cc1nc2ccccc2c(-c2ccccc2)c1C(=O)Nc1ccncc1, the MIC99 [1] was 18.4 µM and the cytotoxicity at 72 h, 50 ug/ml [2] was 12.6%.
With c1ccc(-c2c3c(nc4ccccc24)CCCCCC3)cc1 the MIC99 [1] was 10.9 µM and the cytotoxicity at 72 h, 50 ug/ml [2] was 31.1%.
COc1ccccc1CNC(=O)c1c(C)nc2ccccc2c1-c1ccccc1 gave an MIC99 [1] greater than 65.4 µM.
In the case of Cc1nc2ccccc2c(-c2ccccc2)c1C(=O)Nc1ccccn1, the MIC99 [1] is reported as 73.7 µM.
CCOC(=O)c1c(C)nc2ccccc2c1C showed an MIC99 [1] of 109 µM.
Work on NNC(=O)c1ccncc1 [ISONIAZID] yielded an MIC99 [1] of 0.098 µg/mL.
For c1ccc(-c2cc(-c3ccccc3)c3ccccc3n2)cc1, the MIC99 [1] was 11.1 µM and the cytotoxicity at 72 h, 50 ug/ml [2] was 18.1%.
Cc1nc2ccccc2c(-c2ccccc2)c1C(=O)NCc1cccc(Cl)c1 showed an MIC99 [1] of 64.6 µM.
Cc1nc2ccccc2c(-c2ccccc2)c1C(=O)Nc1ccccc1 showed an MIC99 [1] of 9.23 µM and a cytotoxicity at 72 h, 50 ug/ml [2] of 25.6%.
With Cc1nc2ccccc2c(-c2ccccc2)c1C(=O)NCc1ccccc1Cl the MIC99 [1] was 4.03 µM and the cytotoxicity at 72 h, 50 ug/ml [2] was 13.6%.
In the case of CCOC(=O)c1c(C)nc2ccccc2c1-c1ccccc1, the MIC99 [1] is reported as 0.69 µM, the cytotoxicity at 72 h, 50 ug/ml [2] is reported as 25.6% and the selectivity ratio [3] is reported as greater than 250.
